From patent US10087166B2, “Cyclic amine azaheterocyclic carboxamides” (Merck Patent GmbH, priority 2010, dated 2018)

Target: T1, P70S6K (Homo sapiens, UniProt P23443, T412E)
T1 construct: purchased Millipore
Assay: P70S6K enzyme assay
Format: biochemical
Conditions: P70S6K T412E mutant 3 nM, 24 μM ATP, FITC-AHA-AKRRRLSSLRA-OH substrate, 90 min at 25° C.; read-out: IC50p70S6K
Protocol: P70S6K inhibitor compounds are diluted and plated in 96 well plates. A reaction mixture including the following components is then added to the compound plate to initiate the enzyme reaction; P70S6K (3 nM, T412E mutant, Millipore) is mixed with 24 μM ATP in an assay buffer containing 100 mM Hepes (pH 7.5), 5 mM MgCl2, 1 mM DTT, 0.015% Brij and 1 μM of the substrate peptide FITC-AHA-AKRRRLSSLRA-OH (derived from the S6 ribosomal protein sequence, FITC=fluorescein isothiocyanate, AHA=6-aminohexanoic acid). The reaction is incubated for 90 min at 25° C., before the addition of 10 mM EDTA to stop the reaction. The proportion of substrate and product (phosphorylated) peptide is analyzed on a Caliper Life Sciences Lab Chip 3000, using a pressure of −1.4 psi, and upstream and downstream voltages of −3000 and −700 respectively. Product peaks are resolved before substrate peaks on the resulting chromatograms.
To assess the inhibitory potential of the compounds, IC50-values were determined, as shown in Chemical Synthesis section above.

T1 sequence (P23443 whole entry T412E): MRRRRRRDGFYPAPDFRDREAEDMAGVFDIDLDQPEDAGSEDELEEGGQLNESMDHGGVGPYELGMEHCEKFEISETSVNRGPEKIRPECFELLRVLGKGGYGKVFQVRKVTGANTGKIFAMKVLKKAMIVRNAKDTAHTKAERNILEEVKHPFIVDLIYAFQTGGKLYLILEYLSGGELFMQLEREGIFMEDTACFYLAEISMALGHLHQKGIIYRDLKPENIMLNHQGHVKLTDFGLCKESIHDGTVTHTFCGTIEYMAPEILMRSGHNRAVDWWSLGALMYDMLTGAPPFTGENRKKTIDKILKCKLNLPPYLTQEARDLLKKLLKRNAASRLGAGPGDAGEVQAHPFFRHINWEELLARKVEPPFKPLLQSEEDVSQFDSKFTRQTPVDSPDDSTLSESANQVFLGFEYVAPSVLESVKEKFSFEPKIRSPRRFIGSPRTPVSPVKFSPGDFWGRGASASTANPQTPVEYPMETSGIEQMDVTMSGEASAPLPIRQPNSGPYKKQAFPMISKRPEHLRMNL

Compound `COc1cccc([C@@H]2CNC[C@H]2Nc2ncnc3c(C(N)=O)cccc23)c1` [compound 73, 4-(((3S,4R)-4-(3-methoxyphenyl)pyrrolidin-3-yl)amino)quinazoline-8-carboxamide] has an IC50 of 6.4 nM.

For `Cc1cc([C@H]2CNC[C@@H]2Nc2ncnc3c(C(N)=O)cccc23)ccc1F` [compound 75, 4-(((3R,4S)-4-(4-fluoro-3-methylphenyl)pyrrolidin-3-yl)amino)quinazoline-8-carboxamide], the IC50 was 64 nM.

`Cc1cc([C@@H]2CNC[C@H]2Nc2ncnc3c(C(N)=O)cccc23)ccc1F` [compound 76, 4-(((3S,4R)-4-(4-fluoro-3-methylphenyl)pyrrolidin-3-yl)amino)quinazoline-8-carboxamide] was tested, and the IC50 was 3.4 nM.

`NC(=O)c1cccc2c(N[C@@H]3CNC[C@H]3c3cccc4ccccc34)ncnc12` [compound 79, 4-(((3S,4R)-4-(naphthalen-1-yl)pyrrolidin-3-yl)amino)quinazoline-8-carboxamide] showed an IC50 of 1.2 nM.

`NC(=O)c1cccc2c(N[C@H]3CNC[C@@H]3c3ccc4ccccc4c3)ncnc12` [compound 80, 4-(((3R,4S)-4-(naphthalen-2-yl)pyrrolidin-3-yl)amino)quinazoline-8-carboxamide] gave an IC50 of 24 nM.

`Cc1nc(N[C@H]2CNC[C@@H]2c2cccc(F)c2)c2cccc(C(N)=O)c2n1` [compound 83, 4-(((3R,4S)-4-(3-fluorophenyl)pyrrolidin-3-yl)amino)-2-methylquinazoline-8-carboxamide] was tested, and the IC50 was 160 nM.

`Cc1nc(N[C@@H]2CNC[C@H]2c2cccc(F)c2)c2cccc(C(N)=O)c2n1` [compound 84, 4-(((3S,4R)-4-(3-fluorophenyl)pyrrolidin-3-yl)amino)-2-methylquinazoline-8-carboxamide] gave an IC50 of 1.7 nM.

In the case of `N#Cc1cccc([C@H]2CNC[C@@H]2Nc2ncnc3c(C(N)=O)cccc23)c1` [compound 87, 4-(((3R,4S)-4-(3-cyanophenyl)pyrrolidin-3-yl)amino)quinazoline-8-carboxamide], the IC50 is reported as 81 nM.

With `N#Cc1cccc([C@@H]2CNC[C@H]2Nc2ncnc3c(C(N)=O)cccc23)c1` [compound 88, 4-(((3S,4R)-4-(3-cyanophenyl)pyrrolidin-3-yl)amino)quinazoline-8-carboxamide] the IC50 was 2.4 nM.

`NC(=O)c1cccc2c(N[C@H]3CNC[C@@H]3c3ccc4c(c3)CCO4)ncnc12` [compound 90, 4-(((3R,4S)-4-(2,3-dihydrobenzofuran-5-yl)pyrrolidin-3-yl)amino)quinazoline-8-carboxamide] was tested, and the IC50 was 4 nM.

`NC(=O)c1cccc2c(N[C@@H]3CNC[C@H]3c3ccc4c(c3)CCO4)ncnc12` [compound 91, 4-(((3S,4R)-4-(2,3-dihydrobenzofuran-5-yl)pyrrolidin-3-yl)amino)quinazoline-8-carboxamide] showed an IC50 of 53 nM.

Work on `Cc1c(F)cccc1[C@H]1CNC[C@@H]1Nc1ncnc2c(C(N)=O)cccc12` [compound 93, 4-(((3R,4S)-4-(3-fluoro-2-methylphenyl)pyrrolidin-3-yl)amino)quinazoline-8-carboxamide] yielded an IC50 of 1.2 nM.

In the case of `Cc1c(F)cccc1[C@@H]1CNC[C@H]1Nc1ncnc2c(C(N)=O)cccc12` [compound 94, 4-(((3S,4R)-4-(3-fluoro-2-methylphenyl)pyrrolidin-3-yl)amino)quinazoline-8-carboxamide], the IC50 is reported as 52 nM.

`NC(=O)c1cccc2c(N[C@H]3CNC[C@@H]3c3cccc(Cl)c3)ncnc12` [compound 95, 4-(((3R,4S)-4-(3-chlorophenyl)pyrrolidin-3-yl)amino)quinazoline-8-carboxamide] showed an IC50 of 48 nM.

`COc1ccc([C@@H]2CNC[C@H]2Nc2ncnc3c(C(N)=O)cccc23)cc1` [compound 96, 4-(((3S,4R)-4-(4-methoxyphenyl)pyrrolidin-3-yl)amino)quinazoline-8-carboxamide] showed an IC50 of 4.1 nM.

In the case of `COc1ccc([C@H]2CNC[C@@H]2Nc2ncnc3c(C(N)=O)cccc23)cc1` [compound 97, 4-(((3R,4S)-4-(4-methoxyphenyl)pyrrolidin-3-yl)amino)quinazoline-8-carboxamide], the IC50 is reported as 81 nM.

`NC(=O)c1cccc2c(N[C@@H]3CNC[C@H]3c3ccc(Cl)c(F)c3)ncnc12` [compound 101, 4-(((3S,4R)-4-(4-chloro-3-fluorophenyl)pyrrolidin-3-yl)amino)quinazoline-8-carboxamide] showed an IC50 of 1.1 nM.

For `NC(=O)c1cccc2c(N[C@@H]3CNC[C@H]3c3cc(F)c(F)cc3F)ncnc12` [compound 106, 4-(((3S,4R)-4-(2,4,5-trifluorophenyl)pyrrolidin-3-yl)amino)quinazoline-8-carboxamide], the IC50 was 2.8 nM.

`NC(=O)c1cccc2c(N[C@H]3CNC[C@@H]3c3ccc(Cl)c(F)c3)ncnc12` [compound 112, 4-(((3R,4S)-4-(4-chloro-3-fluorophenyl)pyrrolidin-3-yl)amino)quinazoline-8-carboxamide] showed an IC50 of 330 nM.

`NC(=O)c1cccc2c(N[C@@H]3CNCC[C@H]3c3ccc(C(F)(F)F)cc3)ncnc12` [compound 128] was tested, and the IC50 was 230 nM.

Compound `NC(=O)c1cccc2c(N[C@H]3CNCC[C@@H]3c3ccc(C(F)(F)F)cc3)ncnc12` [compound 129, 4-(((3R,4R)-4-(4-(trifluoromethyl)phenyl)piperidin-3-yl)amino)quinazoline-8-carboxamide] has an IC50 of 1.2 nM.

`NC(=O)c1cccc2c(N[C@H]3CNCC[C@@H]3c3cccc(C(F)(F)F)c3)ncnc12` [compound 130, 4-(((3R,4R)-4-(3-(trifluoromethyl)phenyl)piperidin-3-yl)amino)quinazoline-8-carboxamide] was tested, and the IC50 was 1.2 nM.

`NC(=O)c1cccc2c(N[C@@H]3CNCC[C@H]3c3cccc(C(F)(F)F)c3)ncnc12` [compound 131, 4-(((3S,4S)-4-(3-(trifluoromethyl)phenyl)piperidin-3-yl)amino)quinazoline-8-carboxamide] showed an IC50 of 160 nM.
